Here are results for five molecules from patent publication EP0719267B1, “SECOND MESSENGER CELL SIGNALING INHIBITORS” (CELL THERAPEUTICS, INC., priority 1993, dated 1994).

The subject of data set [1] is THP-1 cell adhesion to IL-1-activated HUVEC. The data set can be described thus: THP-1 cell adhesion to activated HUVEC. The format is cell-based, human. The note with it: IL-1 (10 ng/ml), 8 hours. The method, then:
This example illustrates inhibitive activity of compounds nos. 50 and 57 on THP-1 cell adhesion to IL-1-activated HUVEC. In an investigative assay, HUVEC were stimulated with IL-1 (10 ng/ml), both in the absence and presence of varying concentrations of drugs for 8 hours in a 96-well microtiter plate. In the wellplate, human monocytic leukemia cell line THP-1 cells were added at 50,000 cells per well. The THP-1 cells were pre-incubated with BCECF, a fluorescence dye that can be used to measure cell number using a fluorescence plate reader. After 10 minutes at 37 °C, the microtiter plate was inverted and spun at 900 rpm. The remaining adhering THP-1 cells were then analyzed.
Inventive compound no. […] HUVEC were stimulated with 20 ng/ml IL-1β or 15 ng/ml TNFα for 6 hours. Fluorescence labeled (BCECF-AM) THP-1 cells were allowed to adhere to the HUVEC for 20 minutes, washed once and the amount of fluorescence remaining analyzed on a fluorescence plate reader. The results, reported in figures 62A and 62B (TNFα or IL-1β, respectively), show inhibition of THP-1 adhesion to HUVEC.
Figures 72A and 72B illustrate that inventive compound no. 58 inhibited THP-1 cell adhesion to either TNF or IL-1-stimulated HUVEC, respectively. Procedurally, HUVEC were stimulated with TNF or IL-1 for 8 hours and THP-1 cells added for 20 minutes. The HUVEC were then washed and analyzed for adherence. Inventive compound no. 58 inhibited adhesion of THP-1 cells to HUVEC with an IC50 of approximately 1 µM for both TNF and IL-1.

In data set [2] the test system is CMV promoter activity. The data set is described as follows: microbe, parasite or virus in culture. Format: cell-based. To be noted: transformed (adenovirus) cells. The source says:
This example illustrates data of proliferative activity of various inventive compounds for inducing CMV promoter activity. The CMV promoter assay measures gene transcription and translation activity wherein any active compounds will have cytotoxic activity for inhibiting cellular protein synthesis in transformed (adenovirus) cells. Compound no. […]

Data set [3] has as its system mast cell degranulation. The data set is described as follows: Serotonin release assay for inhibition of mast cell degranulation. Format: cell-based. The text has this:
This assay provides an in vitro model for an allergy and asthma therapeutic product. […]

Data set [4] relates to proliferative PMBC response to allogeneic stimulation. The data set is described as follows: Two-way mixed lymphocyte reaction. The format is cell-based. The source says: This example illustrates therapeutic potential for various autoimmune and inflammatory diseases of the inventive compounds by comparing potency (inhibitive activity) with cytotoxicity data obtained using the following indicative assay procedures. In a mixed lymphocyte reaction assay of compounds nos. […] Compounds nos. […] 2A and 2B. Both compounds nos. […] 2C.
Compound no. […] Compound no.

In data set [5] the test system is mixed lymphocyte reaction assay culture. The data set is described as follows: Cell percent viability in mixed lymphocyte reaction culture. To be noted: 100 µM, six days of cell culture. Format: cell-based. The method, then: Cell percent viability in mixed lymphocyte reaction assay culture was determined after six days of cell culture. […] Control cells unexposed to drugs are generally 78 to 85% viable under these culture conditions. In this assay, all inventive compounds were present at 100 µM concentrations, generally well above corresponding IC50 values in this assay (see fig. 2D). […] Compounds nos.

Data set [6] has as its system murine thymocyte proliferation. The data set can be described thus: Thymocyte proliferation co-stimulated by ConA and IL-2 (tritiated thymidine). The format is cell-based, Balb/C mice. The method, then:
ConA, used to activate CD3, induces T-cell proliferation and differentiation. Thymuses, obtained from normal, female Balb/C mice, were dissociated and plated into 96-well plates at a density of 2 x 10^5 cells/well. ConA (0.25 mg/ml) and IL-2 (15 U/ml) were added to the wells. The cells were incubated for 4 days at 37°C. On day 4, the cells were pulsed with tritiated thymidine and incubated for an additional 4 hours. The amount of tritiated thymidine dye incorporated by the harvested cells was determined in a liquid scintillation counter. Drug doses (shown in figs. 1A and 1B) were added two hours prior to ConA and IL-2 activation.
Thymuses, obtained from normal, female Balb/C mice, were dissociated and plated into 96-well plates at a density of 2 x 10^5 cells/well. ConA (0.25 mg/ml) and IL-2 (15 U/ml) were added to the wells. The cells were incubated for 4 days at 37 °C. On day 4, the cells were pulsed with tritiated thymidine and incubated for an additional 4 hours. The amount of tritiated thymidine dye incorporated by the harvested cells was determined in a liquid scintillation counter. Doses (shown in figs. 26A, 26B and 26C) were added two hours prior to ConA and IL-2 activation.
In another in vitro protocol, thymocyte proliferation was induced by sub-mitogenic doses of Con A (0.25 µg/ml) and IL-2 (20 ng/ml). Cells were stimulated for 96 hours, prior to addition of ^3H-TdR for 4 hours. The cells were harvested and incorporation of ^3H-TdR was determined.
45 on co-stimulated thymocyte proliferation. In an assay procedure, murine thymocytes were stimulated with ConA and IL-2 with 1 µM compound no. 45 added either 1 hour prior to IL-2 (-1), simultaneous with IL-2 (0) or at various times following IL-2 addition (1-92 hour). At 92 hours the thymocytes were pulsed with ^3H-TdR, harvested and counted by scintillation 4 hours later.

For data set [7], the system named is murine thymocyte proliferation. The data set is described as follows: Thymocyte proliferation stimulated by Con A and IL-1α. Format: cell-based. To be noted: Mus musculus, 2 h, added two hours prior to Con A and IL-1α. The method, then:
In a first part of this example, compounds nos. 30, 33, 28 and 27 (see above for chemical names and structures) show effective inhibition of murine thymocyte proliferation stimulated by Con A and interleukin 1 alpha (IL-1α). Compounds nos. 30, 33, 28 and 27 were added to cell cultures two hours prior to activation with Con A and IL-1α in a thymocyte co-stimulation procedure akin to that discussed in example 21. […] IC50 values determined for each inventive compound tested are as follow: compound no. […] Background counts in the assay were less than 200 cpm.

Data set [8] deals with murine splenocyte proliferation. The data set can be described thus: Splenocyte (B cell) proliferation stimulated by anti-mu/anti-IgM and IL-4. Format: cell-based. The note with it: Mus musculus, anti-mu and IL-4 12.5 ng/ml. The method, then: This example illustrates inhibitive effects of compounds nos. 27 and 28 on murine splenocyte proliferation stimulated by anti-mu ([…]) and interleukin-4 (IL-4, 12.5 ng/ml). This in vitro assay, described above, is indicative of immune-suppressive/autoimmune treatment assay emphasizing humoral or B cell immune response. The inventive compound was added to the cells at the doses indicated two hours prior to activation with anti-mu and IL-4. Both compounds nos. 27 and 28 inhibited splenocyte proliferation in a dose-response manner. IC50 values for compounds nos. Background counts were less than 200 cpm.
In figure 57, results shown illustrate that inventive compound no. 45 inhibits B cell proliferation. Murine splenocytes were stimulated with anti-IgM antibodies (10 µg/ml) and murine IL-4 (12.5 ng/ml). Cells were pulsed with ^3HTdR at 44 hours, harvested 4 hours later, and the incorporation of ^3H-TdR was determined by liquid scintillation.

Data set [9] deals with Human stromal cells. The data set is described as follows: Stromal cell proliferation in response to PDGF-BB. To be noted: 50 ng/ml PDGF-BB. Format: cell-based. The method, then:
This assay is useful for predicting therapeutic activity for preventing or treating restenosis, atherosclerosis and coronary artery disease. Human stromal cells were starved in serum-free media for one day and then stimulated with 50 ng/ml PDGF-BB. Inventive compounds, at various concentrations, were added one hour prior to PDGF stimulation. PDGF and tritiated thymidine were added and the cells allowed to incubate for one day, following addition of the PDGF and thymidine. 24 Hours later, the cells were harvested and counted by liquid scintillation counting. Results for compounds nos. Background counts (i.e., starved cells) were approximately 1% of control levels. […] 30, 28, 29, 32 and 31, respectively.

The subject of data set [10] is PDGF/IL-1 co-stimulation, proliferation. The data set can be described thus: PDGF/IL-1 co-stimulation proliferation assay. To be noted: fig. 14. Format: cell-based. The source says:
The PDGF/IL-1 assay is useful in measuring in vitro activity, indicative of therapeutic potential for treating or preventing restenosis and reperfusion. Figure 14 reports IC50 bar graph results for a group of inventive compounds nos. 27, 28, 32, 30, 31, 32 and 34. In this predictive, in vitro model, compounds nos.

Data set [11] relates to Saccharomyces cervisiae. The data set can be described thus: Yeast growth assay (anti-yeast and anti-fungal activity). Format: cell-based. To be noted: 100 µM. The method, then: This example illustrates the effects of a reference compound "X", and inventive compounds nos. 29, 30, 31, 32 and 33 (see above for names and structures) on yeast growth (Saccharomyces cervisiae)--using 100 µM concentrations--as compared with yeast activity in the absence of any compound additive (control). This assay measured anti-yeast and anti-fungal activity of the inventive compounds tested.

Data set [12] relates to mouse thymocytes. The data set is described as follows: Con A priming followed by IL-2 restimulation of thymocytes. The format is cell-based. The method, then:
In a proliferation assay, mouse thymocytes were pre-incubated overnight with Con A (a "priming step"), washed, and restimulated with IL-2 in […] of inventive compounds. On day 4, the cells were pulsed with tritiated thymidine and allowed to incubate for an additional 4 hours. The cells were harvested and the amount of tritiated thymidine incorporated by the harvested cells was determined in a liquid scintillation counter. […] 3.
On day 4, the cells were pulsed with tritiated thymidine and allowed to incubate for an additional 4 hours. The cells were harvested and the amount of incorporated tritiated thymidine was determined in a liquid scintillation counter.

The test system of data set [13] is murine cytotoxic T-cell line, CT6. The data set can be described thus: Cytokine-induced proliferation of the cytotoxic T-cell line CT6 / CT-6.1. To be noted: murine IL-2 (15 U/ml), figs. 21C and 21D. The format is cell-based. The method, then: Another assay in this example was used to determine inhibitive activity of the inventive compounds on direct IL-2-induced proliferation in a murine cytotoxic T-cell line, CT6. The CT6 cell line is an IL-2-dependent cell line. IL-2 was removed from the medium for 24 hours prior to stimulation. […] 49, 50, 45, 43 or 41 were added at various concentrations. The cells were stimulated with IL-2 and amount of tritiated thymidine dye incorporated was measured 48 hours later.
In another related assay, inhibitory effects on CT6 cell proliferation is examined. CT6 cells are a murine IL-2 dependent, cytotoxic T cell line that proliferate in response to murine IL-2 (15 U/ml).
CT-6.1 cells were starved overnight and stimulated with IL-2 (20 ng/ml). Twenty hours later, cells were labeled for 4 hours with ^3H-TdR and counted by liquid scintillation.
CT6.1 cells were cultured with IL-2 with or without the addition of inventive compound no. 45 (2 µM) and viable cells counted for up to 8 days. On day 4, two cultures previously incubated with compound no. 45, were washed and recultured with fresh IL-2 with or without compound no. 45 (2 µM).
Procedurally, CT-6.1 cells were starved overnight and stimulated with either IL-2 (20 ng/ml), IL-4 (50 ng/ml) or IL-7 (25 ng/ml). ^3H-TdR was added at 20 hours, cells were harvested 4 hours later, and the incorporation of ^3H-TdR was determined.

Turning to `Cn1cnc2c1c(=O)n(CCCCCCCCCC(O)CNCc1ccc(N)cc1)c(=O)n2C` (stereo not drawn) [compound 57, 1-[11-(4-Aminobenzylamino)-10-hydroxyundecyl]-3,7-dimethylxanthine], the “inhibition of THP-1 adhesion” value in data set [1] is given as “significantly inhibited THP-1 adhesion, even at low concentratations”.
With `Cn1cnc2c1c(=O)n(CCCCC(O)CNCc1ccccc1)c(=O)n2C` (stereo not drawn) [compound no. 13, 1-(5-hydroxy-6-(N-benzyl)aminohexyl)-3,7-dimethylxanthine], the IC50 – broadly, the concentration needed to halve the response being measured – was more than 500 µM in data set [2] and 55 µM in data set [4] (Lymphocyte, figs. 2A-2C). Moreover, testing at 100 µM in [3] (Mast cell, Concentration 100 µM) gave an inhibition of 28%. Besides, the “cytotoxicity (percent viability)” value in [5] is recorded as “little or no cytotoxicity”.
Turning to `CCCCCCCCNCC(O)CCCCn1c(=O)c2c(ncn2C)n(C)c1=O` (stereo not drawn) [compound no. 28, 1-(5-hydroxy-6-(N-octyl)aminohexyl)-3,7-dimethylxanthine], the IC50 in data set [2] stood at 50 µM; in data set [7], 4.6 µM; in [8], 5.2 µM; in data set [9], 3.2 µM. For the same molecule, in data set [6] (ConA and IL-2 co-stimulation), the “inhibition of thymocyte proliferation” value is “the most potent immune-suppressive effects”. Further, the immune suppression activity entry in [4] (fig. 2D) was “the most potent compound of those assayed”. In data set [5], the “cytotoxicity (percent viability)” value is reported as “the most cytotoxic at 100 µM”. Moreover, the inhibitive activity result in data set [10] is listed as “potent inhibitive activity”.
As to `CCCCCCN(CCCCCC)CC(O)CCCCn1c(=O)c2c(ncn2C)n(C)c1=O` (stereo not drawn) [compound no. 33, 1-(5-hydroxy-6-(N,N-dihexyl)aminohexyl)-3,7-dimethylxanthine], the IC50 in data set [2] stood at 100 µM; in [7] it was 8.6 µM. Further, in data set [11], the yeast-growth inhibitive activity entry is “showed yeast-growth inhibitive activity”.
Turning to `CCCCCCCCNCC(O)CCCCCCCn1c(=O)c2c(ncn2C)n(C)c1=O` (stereo not drawn) [compound no. 35, 1-(8-hydroxy-9-(N-octyl)aminononyl)-3,7-dimethylxanthine], the “% Inhibition” value in data set [3] (Concentration 50 µM) is listed as “too toxic”. In addition, the “IC50 values (range in words)” value in data set [6] (figs. 21A and 21B) is “low micromolar”. Besides, the “inhibition of thymocyte proliferation, compound added with IL-2” value in data set [12] (Con A pre-treated cells, 1µM) is on record as “dramatically inhibited thymocyte proliferation”. Further, the “proliferation in response to IL-2 after compound present during Con A priming” value in data set [12] (compound during overnight Con A incubation, IL-2 without compound) was “normal thymocyte proliferation in response to IL-2 stimulation”. Besides, in [13], the “inhibition of IL-2-induced proliferation” value is recorded as “exhibited no activity in this assay”.
